Laboratory results from patent US20080194585A1, “Fungicidal Pyrazine Derivatives” (priority 2005, published 2008).
Marks after values point to notes of the source that are not given here.

Assays:
Phytophthora infestans = experiment: whole plant or invertebrate; format: in vivo; settings: for Test F disease control rating: 100 = 100% disease control; for pest or weed control at 200 ppm: Phytophthora infestans, in Solanum lycopersicum, topical, 144 h, read-out: Test F disease control rating
Botrytis cinerea = experiment: Test E: tomato botrytis, preventive spray on tomato seedlings; settings: for Test E disease control rating: 40 ppm (marked *), 100 = 100% disease control, 0 = no control
Plasmopara viticola = experiment: Test D: grape downy mildew, spray after inoculation of grape seedlings; format: in vivo; settings: 100 = 100% disease control; for pest or weed control at 200 ppm: Plasmopara viticola, 168 h, read-out: Test D disease control rating
From the text: Upon removal, disease ratings were made. […] A dash (-) indicates no test results.

Pythium aphanidermatum = experiment: Test A: bluegrass pythium blight, preventive spray on bluegrass seedlings; settings: for Test A disease control rating: 40 ppm (marked *), 100 = 100% disease control, 0 = no control; for pest or weed control at 200 ppm: Pythium aphanidermatum, 120 h, read-out: Test A disease control rating
[1] = tested on: Colletotrichum orbiculare; experiment: Test B: cucumber Colletotrichum anthracnose, preventive spray on cucumber seedlings; settings: 100 = 100% disease control; for Test B disease control rating: 40 ppm (marked *)
fusarium graminearium = experiment: Test I: wheat head scab, preventive spray on wheat seedlings; settings: 100 = 100% disease control; for pest or weed control at 200 ppm: Fusarium, in Triticum aestivum, topical, 192 h, read-out: Test I disease control rating, 200 ppm
Experimental: (the causal agent of wheat head scab) and incubated in a saturated atmosphere at 20° C. for 72 h, and then moved to a growth chamber at 22° C. for 5 days, after which disease ratings were made.

Septoria tritici = experiment: Test J: wheat leaf blotch, preventive spray on wheat seedlings; format: in vivo; settings: 40 ppm (marked *), 100 = 100% disease control, 0 = no control; for pest or weed control at 40 ppm: Zymoseptoria tritici, 528 h, read-out: Test J disease control rating
From the text: A dash (-) indicates no test results.

Septoria nodorum = experiment: Test H: wheat glum blotch, preventive spray on wheat seedlings; settings: 100 = 100% disease control; for Test H disease control rating: 40 ppm (marked *)
Experimental: (the causal agent of wheat glum blotch) and incubated in a saturated atmosphere at 20° C. for 48 h, and then moved to a growth chamber at 22° C. for 5 days, after which disease ratings were made.

Rhizoctonia oryzae = experiment: Test G: turf brown patch, preventive spray on creeping bent grass seedlings; settings: 100 = 100% disease control
Experimental: (the causal agent of turf brown patch) and incubated in a saturated atmosphere at 27° C. for 24 h, and then moved to a growth chamber at 27° C. for 5 days, after which disease ratings were made.

[2] = tested on: Erysiphe graminis f. sp. tritici; experiment: Test L: wheat powdery mildew, preventive spray on wheat seedlings; settings: 100 = 100% disease control; for Test L disease control rating: 40 ppm (marked *)
[3] = 40 ppm (marked *), 0 = no control
[4] = Botrytis cinerea, in Solanum lycopersicum, topical, 72 h, read-out: Test E disease control rating
[5] = 200 ppm, 0 = no control relative to controls
[6] = 0 = no control relative to controls

| Structure (SMILES) | Test F disease control rating (Phytophthora infestans; [3]) | Test E disease control rating (Botrytis cinerea) | Test D disease control rating (Plasmopara viticola; [3]) | Test B disease control rating ([1]; 0 = no control) | Test I disease control rating (fusarium graminearium; [3]) | Test J disease control rating (Septoria tritici) | Test H disease control rating (Septoria nodorum; 0 = no control) | Test G disease control rating (Rhizoctonia oryzae; [3]) | Test L disease control rating ([2]; 0 = no control) | further results |
| --- | --- | --- | --- | --- | --- | --- | --- | --- | --- | --- |
| Nn1c(-c2c(F)cccc2F)c(Cl)nc(-n2cccn2)c1=O [Compound 400, 1-Amino-5-chloro-6-(2,6-difluorophenyl)-3-(1H-pyrazol-1-)-2(1H)-pyrazinone] | 0* % | 0* % | 0* % | 0* % | 0* % | 0* % | 0* % | 0* % | – | Test A disease control rating (Pythium aphanidermatum): 0* % |
| NC(=O)c1nc(Cl)c(-c2c(F)cc(F)cc2F)n(-c2cccc(F)c2)c1=O [Compound 414, 6-Chloro-4-(3-fluorophenyl)-3,4-dihydro-3-oxo-5-(2,4,6-trifluorophenyl)pyrazinecarboxamide] | – | – | – | – | – | – | – | – | – | pest or weed control at 200 ppm (Phytophthora infestans): 85%; pest or weed control at 40 ppm (Botrytis cinerea; [4]): 99%; pest or weed control at 40 ppm ([2]; Blumeria graminis, in Triticum aestivum, 168 h, read-out: Test L disease control rating, 40 ppm (marked *), 0 = no control): 98%; pest or weed control at 200 ppm (Plasmopara viticola; [5]): 40%; pest or weed control at 200 ppm (Pythium aphanidermatum): 95%; pest or weed control at 40 ppm ([1]; Colletotrichum orbiculare, in Cucumis sativus, 144 h, read-out: Test B disease control rating, 40 ppm (marked *), 0 = no control): 0%; pest or weed control at 200 ppm (fusarium graminearium; [6]): 35%; pest or weed control at 40 ppm (Septoria tritici): 97%; pest or weed control at 40 ppm (Septoria nodorum; Parastagonospora nodorum, in Triticum aestivum, topical, 168 h, read-out: Test H disease control rating, 40 ppm (marked *), 0 = no control): 0%; pest or weed control at 40 ppm (Rhizoctonia oryzae; Waitea circinata, in Agrostis stolonifera, topical, 144 h, read-out: Test G disease control rating, 40 ppm (marked *), 0 = no control): 0% |
| CCC(C)Cn1c(-c2ccc(F)cc2F)c(C)nc(C#N)c1=NC(C)=O (stereo not shown) [Compound 430, N-[3-Cyano-6-(2,4-difluorophenyl)-5-methyl-1-(2-methylbutyl)-2(1H)-pyrazinylidene]acetamide] | – | – | – | – | – | – | – | – | – | pest or weed control at 200 ppm (Phytophthora infestans): 0%; pest or weed control at 200 ppm (Botrytis cinerea; [4]): 96%; pest or weed control at 200 ppm ([2]; Blumeria graminis, in Triticum aestivum, 168 h, read-out: Test L disease control rating, 200 ppm, 0 = no control relative to controls): 93%; pest or weed control at 200 ppm (Plasmopara viticola; [5]): 0%; pest or weed control at 200 ppm (Pythium aphanidermatum): 0%; pest or weed control at 200 ppm ([1]; Colletotrichum orbiculare, in Cucumis sativus, 144 h, read-out: Test B disease control rating, 200 ppm, 0 = no control relative to controls): 0%; pest or weed control at 200 ppm (fusarium graminearium; [6]): 0%; pest or weed control at 40 ppm (Septoria tritici): 86%; pest or weed control at 200 ppm (Septoria nodorum; Parastagonospora nodorum, in Triticum aestivum, topical, 168 h, read-out: Test H disease control rating, 200 ppm, 0 = no control relative to controls): 0%; pest or weed control at 200 ppm (Rhizoctonia oryzae; Waitea circinata, in Agrostis stolonifera, topical, 144 h, read-out: Test G disease control rating, 200 ppm, 0 = no control relative to controls): 0% |
| O=c1c(-n2cccn2)nc(Cl)c(-c2c(F)cccc2F)n1-c1ccc(F)c(F)c1 [compound 388] | 0* % | 99* % | 0* % | 67* % | 0* % | 100* % | 97* % | 0* % | 0* % | Test A disease control rating (Pythium aphanidermatum): 0* % |
| Cc1ccn(-c2nc(Cl)c(-c3c(F)cccc3F)n(-c3ccc(F)c(F)c3)c2=O)n1 [compound 389] | 0* % | 99* % | 0* % | 98* % | 0* % | 100* % | 94* % | 31* % | 0* % | Test A disease control rating (Pythium aphanidermatum): 0* % |
| O=c1c(-n2cccn2)nc(Cl)c(-c2c(F)cc(F)cc2F)n1-c1ccc(Cl)c(Cl)c1 [compound 402] | 0* % | 99* % | 0* % | 98* % | 0* % | 99* % | 100* % | 0* % | 57* % | – |
| Cc1ccn(-c2nc(Cl)c(-c3c(F)cc(F)cc3F)n(-c3ccc(Cl)c(Cl)c3)c2=O)n1 [compound 403] | 0* % | 99* % | 0* % | 99* % | 0* % | 98* % | 100* % | – | 99* % | Test G disease control rating (Rhizoctonia oryzae; [5]): 0% |
| O=c1c(-n2cccn2)nc(Cl)c(-c2c(F)cc(F)cc2F)n1-c1cc(Cl)cc(Cl)c1 [compound 404] | 0* % | 98* % | 0* % | 0* % | 0* % | 97* % | 100* % | 9* % | 0* % | – |
| Cc1ccn(-c2nc(Cl)c(-c3c(F)cc(F)cc3F)n(-c3cc(Cl)cc(Cl)c3)c2=O)n1 [compound 405] | 0* % | 99* % | 0* % | 36* % | 0* % | 99* % | 98* % | 17* % | 0* % | – |
| O=c1c(-n2cccn2)nc(Cl)c(-c2c(F)cc(F)cc2F)n1-c1ccc(F)c(Cl)c1 [compound 406] | 0* % | 99* % | 0* % | 84* % | 0* % | 100* % | 99* % | 50* % | 0* % | – |
| Cc1ccn(-c2nc(Cl)c(-c3c(F)cc(F)cc3F)n(-c3ccc(F)c(Cl)c3)c2=O)n1 [compound 407] | 0* % | 99* % | 0* % | 32* % | 0* % | 99* % | 99* % | 9* % | 0* % | – |
| O=c1c(-n2cccn2)nc(Cl)c(-c2c(F)cc(F)cc2F)n1-c1ccc(F)cc1 [compound 408] | 0* % | 99* % | 0* % | 98* % | 0* % | 99* % | 100* % | 91* % | 99* % | – |
| Cc1ccn(-c2nc(Cl)c(-c3c(F)cc(F)cc3F)n(-c3ccc(F)cc3)c2=O)n1 [compound 409] | 0* % | 99* % | 0* % | 98* % | 0* % | 99* % | 99* % | 24* % | 60* % | – |
| O=c1c(-n2cccn2)nc(Cl)c(-c2c(F)cc(F)cc2F)n1-c1cc(F)c(F)c(F)c1 [compound 410] | 0* % | 99* % | 0* % | 97* % | 0* % | 98* % | 99* % | 17* % | 0* % | – |
| Cc1ccn(-c2nc(Cl)c(-c3c(F)cc(F)cc3F)n(-c3cc(F)c(F)c(F)c3)c2=O)n1 [compound 411] | 0* % | 99* % | 0* % | 98* % | 0* % | 98* % | 99* % | 16* % | 87* % | – |
| CCn1c(-c2ccc(F)cc2Cl)c(Cl)nc(C(N)=O)c1=O [compound 412] | – | 29* % | – | 0* % | – | 0* % | 0* % | 0* % | 0* % | Test F disease control rating (Phytophthora infestans; [5]): 9%; Test D disease control rating (Plasmopara viticola; [5]): 16%; Test I disease control rating (fusarium graminearium; [5]): 0% |
